One data set has as its system Escherichia coli. As to the kind of experiment: Antibacterial activity against Escherichia coli ATCC 25922 incubated for 24 hrs under aerobic condition. The class given is functional. The note with it: ATCC 25922, 24 h.
The next data set relates to Staphylococcus aureus. Briefly: Antibacterial activity against Staphylococcus aureus ATCC 29213 incubated for 24 hrs under aerobic condition. It counts as functional. The note with it: ATCC 29213, 24 h.
Data set [1] concerns Lipid bilayer. As to the kind of experiment: Induction of membrane disruption in Escherichia coli lipid extract large unilamellar vesicles assessed as carboxyfluorescein leakage at 250 ug/ml by fluorescence assay. It counts as functional.
For data set [2], the system named is Lipid bilayer. Briefly: Binding affinity to Escherichia coli lipid extract large unilamellar vesicles incubated for 30 mins by laser-doppler technique.
Data set [3] can be described thus: Effect on LPS-induced ROS production in human CHME3 cells measured for 30 mins by microscopic method. The class given is ADME, cell-based. The note with it: 0.5 h.
The nature of data set [4]: (§1) Hemolytic activity in human RBC at 180 uM measured after 1 hr relative to control. The class given is ADME, cell-based, Erythrocyte. The note with it: red blood cells (erythrocytes), read-out: Activity.
In data set [5] the test system is Lipid bilayer. As to the kind of experiment: Induction of lipid aggregation in PC/bovine brain SPM/cholesterol large unilamellar vesicles at 140 ug/ml to 640 ug/ml by dynamic light scattering analysis.
Data set [6] deals with Lipid bilayer. Briefly: Induction of pore formation in Escherichia coli lipid extract giant unilamellar vesicles at 640 ug/ml after 25 mins by fluorescence confocal microscopy. It counts as functional.
For data set [7], the system named is Lipid bilayer. Briefly: Induction of lipid aggregation in Escherichia coli lipid extract large unilamellar vesicles at 270 ug/ml by dynamic light scattering analysis. It counts as functional.
For data set [8], the system named is Lipid bilayer. Briefly: Induction of membrane disruption in PC/bovine brain SPM/cholesterol large unilamellar vesicles assessed as carboxyfluorescein leakage at 640 ug/ml by fluorescence assay.
Data set [9] relates to Lipid bilayer. As to the kind of experiment: Induction of membrane disruption in Escherichia coli lipid extract large unilamellar vesicles assessed as carboxyfluorescein leakage at 640 ug/ml by fluorescence assay. The class given is functional.
Data set [10] relates to Lipid bilayer. Briefly: Induction of rearrangement in Escherichia coli lipid extract large unilamellar vesicles assessed as altered colloidal property at 140 ug/ml to 640 ug/ml by dynamic light scattering analysis. The class given is functional.
Data set [11] is described as follows: Cytotoxicity against human MDM cells after 24 hrs by resazurin dye based fluorescence assay. The class given is cell-based. Background: The colour change of resazurin is a common sign of viable cells or microbes.
The subject of data set [12] is Lipid bilayer. As to the kind of experiment: Binding affinity to Escherichia coli lipid extract large unilamellar vesicles assessed as change in tryptophan emission Spectra incubated for 30 mins by spectrofluorometric method.
For a further data set, the system named is Erythrocyte. The data set is described as §1. It counts as ADME, cell-based. Conditions: erythrocyte, 1 h, 180 µM.

Activity calls are given as the source filed them. The rule behind the calls is not given here.

With H-DLASLARLYALAR-NH2, the MIC against Escherichia coli and against Staphylococcus aureus was greater than 700 µg/mL throughout.

As to H-DLLNGLLNPVLGIANGLTGGLVKK-NH2, the MIC against Escherichia coli and in the data set with Staphylococcus aureus was greater than 700 µg/mL each time.

As for H-FIIWPLRYRK-NH2, the outcome with Lipid bilayer [1], with Lipid bilayer [7] and with Lipid bilayer [10] was Active. The Activity with Lipid bilayer [2] was 36 mV; in [3] it was “Non-Toxic”; in the data set on Lipid bilayer [5], “Non-Toxic”; in the data set with Lipid bilayer [8] it was 20%; in the data set on Lipid bilayer [9], 100%; in data set [11] it was “Non-Toxic”. For the same substance, the MIC amounted to 180 µM with Escherichia coli and 360 µM in the data set with Staphylococcus aureus. For the same substance, the hemolysis at 1 h, 180 µM in [4] is less than 5%. For the same substance, the outcome with Lipid bilayer [6] and in the data set on Lipid bilayer [12] was inactive.

Regarding H-FILKRSYPQYY-NH2, the Activity in the data set on Lipid bilayer [2] was 23 mV; in data set [3] it was “Non-Toxic”; in the data set on Erythrocyte it was “Non-Toxic”; in data set [11], “Non-Toxic”. The MIC in the data set on Escherichia coli was 410 µM; in the data set with Staphylococcus aureus, greater than 700 µg/mL.

As for H-NLVGSLLGGILKK-NH2, the figures for the Activity (with Lipid bilayer [2]; in the data set on Erythrocyte; in [11]) were 18 mV, “Non-Toxic” and “Non-Toxic”, respectively. For the same substance, the MIC against Escherichia coli was 460 µM; against Staphylococcus aureus it was greater than 700 µg/mL.

H-NNEENELRRRVSFNRAVIHSLLG-NH2: the MIC with Escherichia coli and in the data set on Staphylococcus aureus was greater than 700 µg/mL each time.

Consider H-VSFNRAVIHSLLG-NH2, for which the MIC with Escherichia coli and in the data set on Staphylococcus aureus was greater than 700 µg/mL in each case.

H-YYQVSEERRRDLASLARLYALAR-NH2: the MIC against Escherichia coli and against Staphylococcus aureus was greater than 700 µg/mL each time.

Usually MIC stands for the lowest concentration found to suppress growth.

Source of the values: ChEMBL document CHEMBL4610074, “Somuncurins: Bioactive Peptides from the Skin of the Endangered Endemic Patagonian Frog Pleurodema somuncurense” (J Nat Prod, 2020).
